Measurements as given in the NIST ThermoML archive (doi:10.1016/j.jct.2016.10.023).
± gives the expanded uncertainty stated by the source.

Experiment: xn = mol fraction of the nth substance listed
Details: Constant-volume piezometry

Work on `CCCCC` [pentane] + CCCO yielded a mass density (563.15 K, 15195 kPa, Fluid (supercritical or subcritical phases), x1 = 0.9) of 353.41 ± 1.8 kg/m3, a mass density (563.15 K, 15944 kPa, Fluid (supercritical or subcritical phases), x1 = 0.8) of 361.2 ± 1.8 kg/m3 and a mass density (563.15 K, 20883 kPa, Fluid (supercritical or subcritical phases), x1 = 0.2) of 469.34 ± 2.4 kg/m3. It also gave a mass density (563.15 K, 22608 kPa, Fluid (supercritical or subcritical phases), x1 = 0.9) of 406.44 ± 2 kg/m3, a mass density (563.15 K, 23762 kPa, Fluid (supercritical or subcritical phases), x1 = 0.8) of 417.33 ± 2.1 kg/m3 and a mass density (563.15 K, 29039 kPa, Fluid (supercritical or subcritical phases), x1 = 0.2) of 508.42 ± 2.6 kg/m3. It also gave a mass density (563.15 K, 36842 kPa, Fluid (supercritical or subcritical phases), x1 = 0.8) of 465.69 ± 2.4 kg/m3, a mass density (563.15 K, 41493 kPa, Fluid (supercritical or subcritical phases), x1 = 0.2) of 545.72 ± 2.8 kg/m3 and a mass density (573.15 K, 1455 kPa, Gas, x1 = 0.8) of 22.47 ± 0.07 kg/m3. It also gave a mass density (573.15 K, 1761 kPa, Gas, x1 = 0.2) of 24.87 ± 0.08 kg/m3, a mass density (573.15 K, 2249 kPa, Gas, x1 = 0.8) of 36.6 ± 0.11 kg/m3 and a mass density (573.15 K, 3350 kPa, Gas, x1 = 0.8) of 58.27 ± 0.18 kg/m3. For the same compound, the mass density (573.15 K, 3774 kPa, Gas, x1 = 0.2) was 52.88 ± 0.16 kg/m3, the mass density (573.15 K, 4034 kPa, Fluid (supercritical or subcritical phases), x1 = 0.8) was 73.62 ± 0.37 kg/m3 and the mass density (573.15 K, 4329 kPa, Fluid (supercritical or subcritical phases), x1 = 0.9) was 83.18 ± 0.42 kg/m3. For the same compound, the mass density (573.15 K, 5099 kPa, Fluid (supercritical or subcritical phases), x1 = 0.2) was 91.19 ± 0.46 kg/m3, the mass density (573.15 K, 5320 kPa, Fluid (supercritical or subcritical phases), x1 = 0.8) was 106.15 ± 0.54 kg/m3 and the mass density (573.15 K, 5748 kPa, Fluid (supercritical or subcritical phases), x1 = 0.9) was 123.05 ± 0.62 kg/m3. It also gave a mass density (573.15 K, 5856 kPa, Fluid (supercritical or subcritical phases), x1 = 0.2) of 114.08 ± 0.58 kg/m3, a mass density (573.15 K, 6139 kPa, Fluid (supercritical or subcritical phases), x1 = 0.9) of 133.8 ± 0.68 kg/m3 and a mass density (573.15 K, 6637 kPa, Fluid (supercritical or subcritical phases), x1 = 0.8) of 139.97 ± 0.71 kg/m3. The mass density (573.15 K, 6909 kPa, Fluid (supercritical or subcritical phases), x1 = 0.2) was 149.98 ± 0.76 kg/m3, the mass density (573.15 K, 7024 kPa, Fluid (supercritical or subcritical phases), x1 = 0.9) was 163.56 ± 0.83 kg/m3 and the mass density (573.15 K, 7062 kPa, Fluid (supercritical or subcritical phases), x1 = 0.8) was 155.67 ± 0.79 kg/m3. It also gave a mass density (573.15 K, 7474 kPa, Fluid (supercritical or subcritical phases), x1 = 0.8) of 169.37 ± 0.86 kg/m3, a mass density (573.15 K, 7491 kPa, Fluid (supercritical or subcritical phases), x1 = 0.2) of 175.18 ± 0.9 kg/m3 and a mass density (573.15 K, 7658 kPa, Fluid (supercritical or subcritical phases), x1 = 0.8) of 175.6 ± 0.89 kg/m3. It also gave a mass density (573.15 K, 7755 kPa, Fluid (supercritical or subcritical phases), x1 = 0.2) of 189.17 ± 0.97 kg/m3, a mass density (573.15 K, 7776 kPa, Fluid (supercritical or subcritical phases), x1 = 0.8) of 180.39 ± 0.91 kg/m3 and a mass density (573.15 K, 7805 kPa, Fluid (supercritical or subcritical phases), x1 = 0.9) of 188.99 ± 0.96 kg/m3. It also gave a mass density (573.15 K, 8168 kPa, Fluid (supercritical or subcritical phases), x1 = 0.8) of 192.69 ± 0.98 kg/m3, a mass density (573.15 K, 8184 kPa, Fluid (supercritical or subcritical phases), x1 = 0.9) of 201.88 ± 1 kg/m3 and a mass density (573.15 K, 8351 kPa, Fluid (supercritical or subcritical phases), x1 = 0.2) of 219.55 ± 1.1 kg/m3. The mass density (573.15 K, 8805 kPa, Fluid (supercritical or subcritical phases), x1 = 0.9) was 220.14 ± 1.1 kg/m3, the mass density (573.15 K, 8815 kPa, Fluid (supercritical or subcritical phases), x1 = 0.8) was 213.33 ± 1.1 kg/m3 and the mass density (573.15 K, 8859 kPa, Fluid (supercritical or subcritical phases), x1 = 0.2) was 244.86 ± 1.2 kg/m3. For the same compound, the mass density (573.15 K, 9002 kPa, Fluid (supercritical or subcritical phases), x1 = 0.8) was 219.08 ± 1.1 kg/m3, the mass density (573.15 K, 9138 kPa, Fluid (supercritical or subcritical phases), x1 = 0.2) was 258.55 ± 1.3 kg/m3 and the mass density (573.15 K, 9198 kPa, Fluid (supercritical or subcritical phases), x1 = 0.9) was 232.49 ± 1.2 kg/m3. For the same compound, the mass density (573.15 K, 9211 kPa, Fluid (supercritical or subcritical phases), x1 = 0.2) was 262.25 ± 1.3 kg/m3, the mass density (573.15 K, 9316 kPa, Fluid (supercritical or subcritical phases), x1 = 0.9) was 235.95 ± 1.2 kg/m3 and the mass density (573.15 K, 9432 kPa, Fluid (supercritical or subcritical phases), x1 = 0.2) was 271.68 ± 1.4 kg/m3. It also gave a mass density (573.15 K, 9453 kPa, Fluid (supercritical or subcritical phases), x1 = 0.9) of 240.34 ± 1.2 kg/m3, a mass density (573.15 K, 9462 kPa, Fluid (supercritical or subcritical phases), x1 = 0.8) of 234.13 ± 1.2 kg/m3 and a mass density (573.15 K, 9562 kPa, Fluid (supercritical or subcritical phases), x1 = 0.9) of 243.64 ± 1.2 kg/m3. It also gave a mass density (573.15 K, 9806 kPa, Fluid (supercritical or subcritical phases), x1 = 0.8) of 244.74 ± 1.2 kg/m3, a mass density (573.15 K, 9864 kPa, Fluid (supercritical or subcritical phases), x1 = 0.2) of 289.81 ± 1.5 kg/m3 and a mass density (573.15 K, 10272 kPa, Fluid (supercritical or subcritical phases), x1 = 0.2) of 306.05 ± 1.6 kg/m3. For the same compound, the mass density (573.15 K, 10324 kPa, Fluid (supercritical or subcritical phases), x1 = 0.8) was 257.93 ± 1.3 kg/m3, the mass density (573.15 K, 10392 kPa, Fluid (supercritical or subcritical phases), x1 = 0.2) was 310.27 ± 1.6 kg/m3 and the mass density (573.15 K, 10713 kPa, Fluid (supercritical or subcritical phases), x1 = 0.2) was 317.97 ± 1.6 kg/m3. It also gave a mass density (573.15 K, 10865 kPa, Fluid (supercritical or subcritical phases), x1 = 0.8) of 271.86 ± 1.4 kg/m3, a mass density (573.15 K, 11108 kPa, Fluid (supercritical or subcritical phases), x1 = 0.9) of 281.31 ± 1.4 kg/m3 and a mass density (573.15 K, 11531 kPa, Fluid (supercritical or subcritical phases), x1 = 0.2) of 340.39 ± 1.7 kg/m3. It also gave a mass density (573.15 K, 11654 kPa, Fluid (supercritical or subcritical phases), x1 = 0.2) of 343.17 ± 1.7 kg/m3, a mass density (573.15 K, 11678 kPa, Fluid (supercritical or subcritical phases), x1 = 0.8) of 287.66 ± 1.4 kg/m3 and a mass density (573.15 K, 12021 kPa, Fluid (supercritical or subcritical phases), x1 = 0.9) of 300.93 ± 1.5 kg/m3. For the same compound, the mass density (573.15 K, 12217 kPa, Fluid (supercritical or subcritical phases), x1 = 0.8) was 298.45 ± 1.5 kg/m3, the mass density (573.15 K, 12707 kPa, Fluid (supercritical or subcritical phases), x1 = 0.9) was 311.54 ± 1.6 kg/m3 and the mass density (573.15 K, 13246 kPa, Fluid (supercritical or subcritical phases), x1 = 0.8) was 314.57 ± 1.6 kg/m3. It also gave a mass density (573.15 K, 13392 kPa, Fluid (supercritical or subcritical phases), x1 = 0.2) of 377.65 ± 1.9 kg/m3, a mass density (573.15 K, 13687 kPa, Fluid (supercritical or subcritical phases), x1 = 0.2) of 382.44 ± 1.9 kg/m3 and a mass density (573.15 K, 14239 kPa, Fluid (supercritical or subcritical phases), x1 = 0.9) of 333.19 ± 1.7 kg/m3. The mass density (573.15 K, 14284 kPa, Fluid (supercritical or subcritical phases), x1 = 0.2) was 390.25 ± 2 kg/m3, the mass density (573.15 K, 14505 kPa, Fluid (supercritical or subcritical phases), x1 = 0.8) was 333.01 ± 1.7 kg/m3 and the mass density (573.15 K, 15392 kPa, Fluid (supercritical or subcritical phases), x1 = 0.8) was 344.5 ± 1.7 kg/m3. It also gave a mass density (573.15 K, 16409 kPa, Fluid (supercritical or subcritical phases), x1 = 0.9) of 353.22 ± 1.8 kg/m3, a mass density (573.15 K, 16662 kPa, Fluid (supercritical or subcritical phases), x1 = 0.2) of 417.59 ± 2.1 kg/m3 and a mass density (573.15 K, 17250 kPa, Fluid (supercritical or subcritical phases), x1 = 0.8) of 361.01 ± 1.8 kg/m3. It also gave a mass density (573.15 K, 23293 kPa, Fluid (supercritical or subcritical phases), x1 = 0.2) of 469.08 ± 2.4 kg/m3, a mass density (573.15 K, 24391 kPa, Fluid (supercritical or subcritical phases), x1 = 0.9) of 406.23 ± 2 kg/m3 and a mass density (573.15 K, 25613 kPa, Fluid (supercritical or subcritical phases), x1 = 0.8) of 417.11 ± 2.1 kg/m3. The mass density (573.15 K, 32252 kPa, Fluid (supercritical or subcritical phases), x1 = 0.2) was 508.13 ± 2.6 kg/m3 and the mass density (573.15 K, 39390 kPa, Fluid (supercritical or subcritical phases), x1 = 0.8) was 465.43 ± 2.4 kg/m3.
